Source: article PMC9788692 (2022)

Legend:
Assay in all cases: in-line probing
[1] = test system: 95 Csp (RNA, riboswitch) GGAAUGCUUCCUCCGCCACCGGGCGGAGGGUGAAAAGCGUCCACGGUCUCCCGUAGGUACGGCGCGCUCUGCGCGUUACAAGGGAGCCGCGGGCG; settings: 100 mM KCl, 20 mM MgCl2, 50 mM Tris-HCl pH 8.3 (23 °C), ~48 h
[2] = test system: 105 Mja (RNA, riboswitch) GGAACACCGCUUCUGUCACCGGACAGGAGAAAUGGGGUGUCUGGGAGUUGUCGUAGGUACGGUAUGGUUGCAUGCUAUAAGACAAUUCCUGGGCACCCCUGUUUU; settings: 100 mM KCl, 20 mM MgCl2; 50 mM Tris-HCl pH 8.3 (23 °C), ~48 h; highest concentration 10 mM
[3] = test system: 95 Dsu (RNA, riboswitch) GGAAACUCUUCCCUGUCACCGGAUAGGGAGCCAAGAGGGUUUAUUCCUGCUGCAGGUAAUAUGGCGAAAACCAUUGAAAGGCAGGAAUAAAUCCU; settings: 100 mM KCl, 20 mM MgCl2; 50 mM Tris-HCl pH 8.3 (23 °C), ~48 h; highest concentration 10 mM
[4] = test system: 95 Csp M2 (RNA, riboswitch) GGAAUGCUUCCUCCGCCACCGGGCGGAGGGUGAAAAGCGUCCACGGUCUCCCGUAGGAACGGCGCGCUCUGCGCGUUACAAGGGAGCCGCGGGCG; settings: 100 mM KCl, 20 mM MgCl2; 50 mM Tris-HCl pH 8.3 (23 °C), ~48 h; highest concentration 10 mM; modulation almost eliminated
[5] = test system: 81 Csp (RNA, riboswitch) GGAAUGCUUCCUCCGCCACCGGGCGGAGGGUGAAAAGCGUCCACGGUCUCCCGUAGGUACGGCGCGCUCUGCGCGUUACAA; settings: 100 mM KCl, 20 mM MgCl2; 50 mM Tris-HCl pH 8.3 (23 °C), ~48 h; weaker than 95 Csp
[6] = weaker than guanidine, data not shown
[7] = highest concentration not stated

`CNC(=N)N` was tested, and the binding [1, 6] was “weak”.

In the case of `N=C(N)NCCC[C@H](N)C(=O)O`, the binding [1, 7] is reported as “no”.

In the case of `N=C(N)NCCCCN`, the binding [1, 7] is reported as “no”.

`N=C(N)NO` was tested, and the binding [1, 6] was “weak”.

`N=C(N)N` was tested, and the binding [2] was “no”, the binding [3] was “no” and the binding [4] was “weak”. The binding [5] was “weak” and the binding ([1]; 0.61 µM-20 mM, no saturation, modulation above 1 mM) was “weak”.

For `N=C(N)NOCC[C@H](N)C(=O)O`, the binding [1, 7] was “no”.
